# Values quoted from earlier work as cited in patent US6440942B1, “14-membered macrolides derived from leucomycins” (Enanta Pharmaceuticals, Inc., priority 2000, dated 2002).
# Like-named read-outs stand apart in the source and are kept apart here.
# Key:
# [1] = for antimicrobial activity: josamycin metabolites isolated from urine and plasma of adults given oral josamycin; for in vitro potency relative to the parent compound: main metabolites of rokitamycin, parent compound = rokitamycin
# [2] = dogs; compared with other 4″-O-butyryl derivatives
# [3] = monkeys; compared with other 4″-O-butyryl derivatives
compound,measurement,setting,value
β-hydroxyisovaleryl josamycin,antimicrobial activity,[1],poor
"CCCC(=O)O[C@H]1[C@H](C)O[C@@H](O[C@H]2[C@H](N(C)C)[C@@H](O)[C@H](O[C@H]3[C@@H](CC=O)C[C@@H](C)[C@@H](O)/C=C/C=C/C[C@@H](C)OC(=O)C[C@@H](O)[C@@H]3OC)O[C@@H]2C)C[C@@]1(C)OC(=O)CC [rokitamycin, 3″-O-propionyl leucomycin A5]",activity among 4″-O-butyryl derivatives,[1]; compared with other 3″-O-acyl leucomycin A5 derivatives,most active
same,"in vitro activity against Gram-negative bacteria relative to leucomycin A5, josamycin and midecamycin",Gram-negative bacteria,twice as high
same,serum levels,[2],highest
same,serum levels,[3],highest
COC1C(O)CC(=O)OC(C)CC=CC=CC(=O)C(C)CC(CC=O)C1OC1OC(C)C(OC2CC(C)(O)C(OC(=O)CC(C)C)C(C)O2)C(N(C)C)C1O (stereo not drawn) [Niddamycin],antibacterial activity in vitro,Gram-positive bacteria,good
same,antibacterial activity in vitro,Mycoplasma spp.,good
demycarosyl josamycin,antimicrobial activity,[1],inactive
4″-debutyryl leucomycin A5 [leucomycin V],in vitro potency relative to the parent compound,[1],one-tenth
COC1C(OC(C)=O)CC(=O)OC(C)CC=CC=CC(O)C(C)CC(CC=O)C1OC1OC(C)C(OC2CC(C)(O)C(O)C(C)O2)C(N(C)C)C1O (stereo not drawn) [desisovaleryl josamycin],antimicrobial activity,[1],inactive
5-hydroxyjosamycin,antimicrobial activity,[1],poor
CCC(=O)O[C@H]1[C@H](C)O[C@@H](O[C@H]2[C@H](N(C)C)[C@@H](O)[C@H](O[C@H]3[C@@H](CC=O)C[C@@H](C)[C@@H](O)/C=C/C=C/C[C@@H](C)OC(=O)C[C@@H](O)[C@@H]3OC)O[C@@H]2C)C[C@@]1(C)O [Leucomycin A7],in vitro potency relative to the parent compound,[1],one-half
